The source of these data is a melting point compilation (Tetko et al.; mined from patent text by program, amines drawn as free bases though some values may be those of a salt).

The melting point is the temperature, or range, at which the solid turns liquid.

Starred links: 1 amine or outer side, 2 acyl side, 3 side chain; linkers in the order of their positions; H or OH if unused. Residues, ends and D or L forms follow the SMILES beside them. Glutaryl = O=C(CCCC(=O)[*:2])[*:1]

On to `Cc1cccc(C)c1NC(=O)Nc1ccc(CC(=O)NC(CC(C)C)c2ncc(CCC(=O)O)s2)cc1` (stereo unspecified), for which the melting point fell in the range of 125 to 127 °C.
On to `COc1ccc(C2(C#Cc3cccc(NS(C)(=O)=O)c3)CCCC(=O)C2)cc1OC1CCCC1` (stereo unspecified), for which the melting point fell in the range of 59 to 62 °C.
The value for `Cc1nc(NC(=O)c2cnn3c(C(F)(F)F)cc(-c4ccc(C(F)(F)F)c(Cl)c4)nc23)sc1S(=O)(=O)NC(C)(C)CO` was 274 °C; that for `COc1ccc2cc(C(=O)CCC(=O)c3ccccc3)ccc2c1` was 164 °C.
The compound `N#Cc1cc(Cc2ccc(F)cc2)ccc1N` came in with a melting point of 105 to 107 °C.
To `CCON=C(CC)C1=C(O)CC(c2ccc(C(=O)OC)cc2)CC1=O` (stereo unspecified) belongs 75 to 76 °C; to `COc1ccc(-c2cc(=S)n(Cc3ccc(Cl)cc3Cl)nc2-c2ccc(OC)cc2)cc1`, 170 °C.
To `CC(CS)C(=O)N1C(=O)CC[C@H]1C(=O)O` (stereo partly specified) belongs 101 to 108 °C; to `Cc1ccc(CC(NCc2ccc(O)cc2)c2ccccc2)cc1` (stereo unspecified), 129 to 130 °C; to `Cc1cc(N)c([N+](=O)[O-])cc1NCCO`, 141 °C.
As for `C=C(CS(=O)CCCC)c1ccccc1` (stereo unspecified), the melting point lay within 42 to 43.5 °C.
`Cc1ccccc1-c1cc(-c2ccccc2C(=O)O)on1` had a melting point of 162 to 164 °C.
The value for `Fc1cc(Cl)cc(Cn2cccc2)c1` was 48 to 50 °C.
To `CC(CN1CC(=O)N(CN2CCOCC2)C(=O)C1)N1CC(=O)NC(=O)C1` (stereo unspecified) belongs 162 to 165 °C; to `CC(C)c1cccc2[nH]c(C(=O)O)cc(=O)c12`, more than 250 °C; to `Cc1c(Nc2c(C#N)cncc2-c2coc(CN3CCN(C)CC3)c2)ccc2[nH]ccc12`, 129 °C.
The value for `CCN(CC)C(=O)Nc1ccc(S(=O)(=O)N2C(=O)C(NCCCC(N)=O)(c3ccccc3Cl)c3cc(Cl)ccc32)cc1` (stereo unspecified) was 192 °C; that for `CCNC(=O)C1CCCN1C(=O)C(C)NC(=O)C(C)NC(=O)CCCC(=O)O` (stereo not drawn) (Glutaryl-Ala-Ala-Pro-NHEt; configuration not given here) was 154 to 156 °C.
`Cc1ccccc1-n1c(C)nc2c(c1=O)N(Cc1ccccc1)NN2` yielded a melting point of 178 to 180 °C.
The value for `O=C1Cc2c(Oc3ccccc3)ccc(Cl)c2N1` was 200 to 202 °C.
To `CCOC(=O)C(=CNc1csnn1)C(=O)c1cc(F)c(F)cc1F` belongs 104 to 106 °C; to `N#Cc1cnn2c1N(C(=O)CN1CCN(C(=O)Nc3cccc(Cl)c3)CC1)CC=C2c1cccc(C(F)(F)F)c1`, 182 to 185 °C.
The value for `CCCOCCOc1ccc(COc2ccc3c(c2)C=C(C(=O)Nc2ccc(CN(C)C4CCOCC4)cc2)CCS3(=O)=O)cc1OCC` was 146 to 147 °C; that for `CCOC(=O)c1c[nH]c2c(=O)ccc(Cl)cc2c1=O` was 138 to 140 °C.
`O=C1OCCC12Sc1ccc(S(=O)(=O)N3CCCCC3)cc1C2=O` (stereo unspecified) returned a melting point of 159 to 161 °C.
To `C#CCOc1cc(-c2ncnc(C(F)(F)F)c2Cl)c(F)cc1Cl` belongs 112 to 113 °C; to `O=C(CCCN1CCC(c2ccccc2Cc2ccccc2)CC1)c1ccc(F)cc1`, 100 to 102 °C.
To `O=C(O)C(=O)CC(=O)c1cccn1Cc1cc(F)cc(F)c1` belongs 166 to 168 °C; to `COc1cc(N)c(Cl)cc1C(=O)NC1CC2CCCCN2C1` (stereo unspecified), 192 to 193 °C.
To `COc1ccc2c(c1)C(=O)CC1C2C(OC(=O)C(C)(C)C)CC2(C)C(OC(=O)C(C)(C)C)CCC12` (stereo unspecified) belongs 183 to 184 °C; to `COC(=O)C1=Cc2cc(-c3ccc(N4CCOCC4)cc3)ccc2S(=O)(=O)CC1`, 215 to 217 °C.
Take `O=C(c1ccccc1)c1ccc2nccnc2c1`: the melting point came to 120 °C.
To `CCOc1ccc(CC(CN2CC(=O)OC(=O)C2)N(CCN2CC(=O)OC(=O)C2)CC(=O)O)cc1` (stereo unspecified) belongs 172 to 174 °C; to `CSc1ccc(C(=O)Nc2ccccc2)cc1N`, 143 to 145 °C; to `CCOC(=O)c1cc(-c2ccc(-c3ccco3)cc2)n(-c2ccc(S(C)(=O)=O)c(F)c2)n1`, 172 °C.
To `CC(C)C=Cc1c(C(C)C)nc(C(C)C)c(CO)c1-c1ccc(F)cc1` belongs 112 °C; to `CN1C2CCC1CC(N(C)S(=O)(=O)c1ccc(Nc3nccc(Nc4ccc(F)cc4)n3)cc1)C2` (stereo unspecified), 184 °C; to `Cc1nc(NC(=O)Nc2ccccc2)n(C)c(=O)c1CCN1CCC(Cc2nc3ccccc3n2Cc2ccc(F)cc2)CC1`, 157 °C.
To `CCOC(=O)/C(=C\Nc1ccccc1OC)c1ccc(OC)cc1` belongs 58 to 59 °C; to `CCOCc1nc2c(N)nc3ccccc3c2n1CCCc1cc(-c2cccnc2)no1`, 199 to 200 °C; to `CN1CCN(C)C1=Nc1ccccc1N1CCOCC1`, 133 to 134 °C.
The compound `N#CC(C#N)=Cc1ccccc1F` had a melting point of 117 to 118 °C.
For the compound `CNC(=O)c1ccccc1Nc1nc(Nc2ccc3c(c2)NCCNC3=O)ncc1Cl`, the melting point was in the range of 232 to 237 °C.
For `O=c1c2c(CCCc3ccccc3)n[nH]c2c2cccnc2n1-c1ccccc1`, the melting point was in the range of 202 to 204 °C.
To `CC(C)c1nccn1N=Cc1ccccc1` belongs 65 to 66 °C.
To `CC1(C)N=C(c2ccccc2Cl)c2cc([N+](=O)[O-])ccc2NC1=O` belongs 125 to 127 °C.
To `FC(F)(F)c1ccc(C2=NN(C(=S)Nc3ccc(Cl)cc3)CC2c2ccccc2)cc1` (stereo unspecified) belongs 208 to 210 °C; to `CC(C)NCC(O)COc1cccc2c1CCCC(=O)N2` (stereo unspecified), 143 to 145 °C.
`COC(=O)c1ccc2[nH]c(C#N)c(-c3ccccc3)c2c1` had a melting point of 250 to 253 °C.
`COc1cc(Br)c(OC)c(C=O)c1` showed a melting point of 62 to 64 °C.
The value for `CC(C)CC(C(=O)c1cccc(Cl)c1)c1ccccc1NC(C)(C)C` (stereo unspecified) was 172 to 174 °C; that for `COc1ccc(S(=O)(=O)N(CC(=O)O)Cc2ccccc2N)cc1` was 145 to 147 °C.
For `O=C1c2c(O)ccc(O)c2C(=O)c2c(NCCNCCO)ccc(NCCNCCO)c21`, the melting point lay within 175 to 177 °C.
To `CCC1c2cccn2-c2ccc(F)cc2N1S(=O)(=O)c1ccc(O)c(C)c1` (stereo unspecified) belongs 175 to 177 °C.
On to `Cc1ccc(CC(CC(=O)Oc2ccc([N+](=O)[O-])cc2)C(=O)Oc2ccc([N+](=O)[O-])cc2)cc1` (stereo unspecified), for which the melting point was 97 to 98 °C.
To `COC(=O)CCCCCSc1ccc(-c2ccc(Cl)cc2)cc1` belongs 87 to 88 °C.
The value for `O=C(OCc1ccccc1)C1(NS(=O)(=O)c2ccc(Oc3ccc(F)cc3)cc2)CCCC1` was 97 to 97.5 °C; that for `COc1ccc(C[C@@H](NC(=O)OCc2ccccc2)[C@H](O)C(=O)O)cc1` was 160 to 162 °C.
The value for `O=S(=O)(c1ccc(Cl)cc1)c1ccc(-c2ccc(O)cc2)cc1` was 268 to 270 °C; that for `CSC=CC(C)(C)C(=O)O` was 49 to 51 °C; that for `CN1c2ccc(-c3ccccc3)cc2Sc2cc(-c3ccccc3)ccc21` was 239 to 241 °C.
For the compound `CC(=O)Oc1ccc(CC2SC(=O)NC2=O)cc1` (stereo unspecified), the melting point was in the range of 115 to 117 °C.
To `COc1ccc(C(C)C)cc1CN[C@H]1[C@H]2CCN(C[C@@H]2C(=O)NC(C)C(N)=O)[C@H]1C(c1ccccc1)c1ccccc1` (stereo partly specified) belongs 243 to 245 °C.
To `COc1ccc2nc(OC)cc(C)c2c1` belongs 58 to 59 °C; to `O=C(Nc1cccnc1)NC(NC(=O)c1ccccc1)C(Cl)(Cl)Cl` (stereo unspecified), 214 to 215 °C.
Compound `O=C(NC1CC1)C(O)=CC(=O)c1ccc(Cc2ccc(F)cc2)o1` came in with a melting point of 116 to 117 °C.
The value for `CC1(C)CCCNC1C(=O)O` (stereo unspecified) was more than 305 °C; that for `C=CCc1c(OC)c(C)c2c(c1OC(C)=O)C(=O)OC2` was 101 to 102 °C.
The value for `O=C(NC(=O)C(c1ccccc1)c1ccccc1)OCC1CC1` was 108 °C; that for `Cc1nn(C)c(C(=O)O)c1-c1ccc(Cl)c(C(=O)NCC23CC4CC(CC(C4)C2)C3)c1` was 207 °C.
To `O=C(O)Cn1cc(Cc2nc3c(F)c(F)cc(F)c3s2)c2cccc(Cl)c21` belongs 228 to 230 °C; to `COc1c(-c2ccc3cc(NS(C)(=O)=O)ccc3c2)cc(-n2ccc(=O)[nH]c2=O)cc1C(C)(C)CO`, 256 to 257 °C.
For the compound `OCc1ccc(-c2ccc(OCc3ccccc3)cc2)cc1`, the melting point was 194 to 195 °C.
To `CC=C(CC)c1nc(C)nc2c1c(C)c(C)n2-c1c(C)cc(C)cc1C` belongs 59 to 61 °C; to `COc1cc(NC(=O)Nc2cccc3c2C2CC(OC)CCN2C3=O)nc2ccccc12` (stereo unspecified), more than 260 °C.
As for `CCOC(=O)C1=CCCCC1S(=O)(=O)Nn1cccc1CC` (stereo unspecified), the melting point was 77 to 78 °C.
The value for `COc1ccc(S(=O)(=O)N(CC(N)=O)c2ccc(Cl)cc2C(O)c2cc(Cl)ccc2Cl)cc1OC` (stereo unspecified) was 132 °C.
To `COc1cc(C2CCN(C(=O)C3CCN3)CC2)ccc1Nc1ncc2ccc(-c3ccccc3OC)n2n1` (stereo unspecified) belongs 103 to 112 °C; to `O=C1c2ccccc2C(=O)c2sc(-c3cccc(F)c3)nc21`, more than 260 °C; to `C=CC(=O)OCCCCCCN(C)c1ccc(C=Cc2ccc(S(C)(=O)=O)cc2)cc1`, 88 to 90 °C.
Compound `C=CCN(c1ncnc2c1ncn2C1OC(CO)C(O)C1O)C1CCCCC1` (stereo unspecified) showed a melting point of 123 to 125 °C.
`CCCCOc1ccccc1-c1ncc(C(=O)O)c(=O)[nH]1` displayed a melting point of 163 to 165 °C.
Regarding `COc1nc(C)nc(NC(=O)NS(=O)(=O)c2cccs2)n1`, the melting point was in the range of 182 to 184 °C.
Regarding `CON(C)C(=O)c1cc2c(s1)CCCC2`, the melting point fell in the range of 36 to 37 °C.
To `O=C(Nc1nncs1)C(=O)c1cn(Cc2ccc(F)cc2)c2ccccc12` belongs 218 to 220 °C; to `Cc1nc(C(=O)O)co1`, more than 250 °C.
